Here are results for 2 molecules from patent US8524227B2, “Anti-IL-TIF antibodies” (ZymoGenetics, Inc., priority 2002, dated 2013).

Experiment [1] in a line: DSS-induced colitis mouse model. It counts as in vivo, mice. Particulars: for histopathology screening score: 4% DSS in drinking water. The text has this: Colitis was induced by DSS ingestion in Swiss Webster female mice from Charles River Laboratories. The mice were 10 and 11 weeks old at the start of the study. Mice were given 4% DSS in the drinking water for a period of 6 days (treated mice), or were given only normal drinking water (control mice). A Disease Activity Index clinical score (DAI) was used, which comprises a combination of measurements including stool quality, occult blood and weight loss. DAI was obtained daily for each mouse beginning one day after DSS treatment. After 6 days, DSS was removed from the drinking water of the treated mice. All mice were monitored by DAI clinical score until sacrifice at either 2, 7 or 10 days from the start of the study. On each of days 2 and 7, four DSS-treated mice and one control mouse were sacrificed. On day 10, four DSS-treated mice and two control mice were sacrificed. For all animals after sacrifice, the colon length was measured. Colon sections were fixed in 10% neutral buffered formalin for histologic analysis or frozen for mRNA extraction.
Histologic index scores were obtained following the method in reference 1. Generally, the colon sections were scored blinded by a pathologist for crypt scores, hyperplastic epithelium, crypt distortion and inflammation.
Daily, each mouse was graded as to a clinical score based on weight loss, stool consistence and intestinal bleeding. Higher scores were assigned for increasing amounts of weight loss, diarrhea and bleeding. The daily score for each mouse was the mean grade obtained from the three results/observations.

Experiment [2] addresses T1, IL-TIF (Homo sapiens, UniProt Q9GZX6).
T1 sequence (Q9GZX6 13-179 limits assumed): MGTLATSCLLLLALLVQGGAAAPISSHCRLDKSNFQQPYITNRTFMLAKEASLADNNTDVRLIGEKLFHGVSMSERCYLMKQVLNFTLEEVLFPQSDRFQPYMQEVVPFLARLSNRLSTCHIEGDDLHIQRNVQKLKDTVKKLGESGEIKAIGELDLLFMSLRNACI
The experiment in a line: Inhibition of IL-TIF-induced proliferation of BaF3/CRF2-4/zcytor11 cells by soluble receptors. Particulars: 100 pg/ml IL-TIF. It counts as cell-based. As to the method:
BaF3/CRF2-4/zcytor11 cells described herein were spun down and washed in PBS 2 times to ensure the removal of the mIL-3, and then spun a third time and re-suspended in the complete media (RPMI 1640, 10% FBS, 1% GlutaMAX, 1% Sodium Pyruvate), but without mIL-3 (hereinafter referred to as “mIL-3 free media”). Cells were then counted in a hemocytometer. Cells were plated in a 96-well format at 5000 cells per well in a volume of 100 μl per well using the mIL-3 free media.
IL-TIF protein (SEQ ID NO:3) was diluted to 200 pg/ml in mIL-3 free media. Zcytor16-Fc4 fusion protein (described herein) was diluted to 1 μg/ml in the mIL-3 free/IL-TIF media on the top row of the plate, and then diluted serially 1:2 down the remaining 7 rows on the 96-well plate, leaving a volume of 100 μl in each well. This was then added to the 100 μl of cells, for a final IL-TIF concentration of 100 pg/ml in all wells, and final Zcytor16-Fc4 concentrations of approximately […], 0.016, and 0.008 μg/ml in a total assay volume of 200 μl. CRF2-4/zcytor11-Fc4 was diluted to 8 μg/ml in the mIL-3 free/IL-TIF media on the top row of the plate, and then diluted serially 1:2 down the remaining 7 rows on the 96-well plate, leaving a volume of 100 μl in each well. This was then added to the 100 μl of cells, for a final IL-TIF concentration of 100 pg/ml in all wells, and final CRF2-4/zcytor11-Fc4 concentrations of approximately […], 0.25, 0.125 and 0.063 μg/ml, in a total assay volume of 200 The assay plates were incubated at 37° C., 5% CO2 for 4 days at which time Alamar Blue (Accumed, Chicago, Ill.) was added at […]. Plates were again incubated at 37° C., 5% CO2 for 16 hours. Alamar Blue gives a fluourometric readout based on number of live cells, and is thus a direct measurement of cell proliferation in comparison to a negative control. Plates were read on the Wallac Victor 2 1420 Multilabel Counter (Wallac, Turku, Finland) at wavelengths 530 (Excitation) and 590 (Emmssion). […] IL-TIF alone stimulated the cells 13-fold over background.

Turning to dextran sulfate sodium [DSS], the histopathology screening score is recorded as 8.8 in experiment [1] (day 2), 21 in experiment [1] (day 7) and 18 in experiment [1] (day 10). For the same molecule, the “colon lengths vs non-treated controls” value in experiment [1] (days 7 and 10) is “somewhat shorter”.

B1: CRF2-4/zcytor11-Fc4: secreted heterodimer of extracellular domains of hzcytor11 and CRF2-4, each fused to Fc4 (protein)
chain 1: HAPEDPSDLLQHVKFQSSNFENILTWDSGPEGTPDTVYSIEYKTYGERDWVAKKGCQRITRKSCNLTVETGNLTELYYARVTAVSAGGRSATKMTDRFSSLQHTTLKPPDVTCISKVRSIQMIVHPTPTPIRAGDGHRLTLEDIFHDLFYHLELQVNRTYQMHLGGKQREYEFFGLTPDTEFLGTIMICVPTWAKESAPYMCRVKTLPDRTWTGSGSGSGSEPRSSDKTHTCPPCPAPEAEGAPSVFLFPPKPKDTLMISRTPEVTCVVVDVSHEDPEVKFNWYVDGVEVHNAKTKPREEQYNSTYRVVSVLTVLHQDWLNGKEYKCKVSNKALPSSIEKTISKAKGQPREPQVYTLPPSRDELTKNQVSLTCLVKGFYPSDIAVEWESNGQPENNYKTTPPVLDSDGSFFLYSKLTVDKSRWQQGNVFSCSVMHEALHNHYTQKSLSLSPGKLVPRGSGSGGEYMPME
chain 2: MVPPPENVRMNSVNFKNILQWESPAFAKGNLTFTAQYLSYRIFQDKCMNTTLTECDFSSLSKYGDHTLRVRAEFADEHSDWVNITFCPVDDTIIGPPGMQVEVLDDSLHMRFLAPKIENEYETWTMKNVYNSWTYNVQYWKNGTDEKFQITPQYDFEVLRNLEPWTTYCVQVRGFLPDRNKAGEWSEPVCEQTTHDETVPSGSGSGSGSEPRSSDKTHTCPPCPAPEAEGAPSVFLFPPKPKDTLMISRTPEVTCVVVDVSHEDPEVKFNWYVDGVEVHNAKTKPREEQYNSTYRVVSVLTVLHQDWLNGKEYKCKVSNKALPSSIEKTISKAKGQPREPQVYTLPPSRDELTKNQVSLTCLVKGFYPSDIAVEWESNGQPENNYKTTPPVLDSDGSFFLYSKLTVDKSRWQQGNVFSCSVMHEALHNHYTQKSLSLSPGKGSGGHHHHHH
modifications: left off: small tags and cut ends
notes: secreted heterodimer of extracellular domains of hzcytor11 and CRF2-4, each fused to Fc4
Take B1: in experiment [2], the “concentrations completely inhibiting proliferation” value was determined as 8 µg/mL, the “concentrations partially inhibiting proliferation” value was in the range of 0.125 to 4 µg/mL and the “inhibition of the proliferative effect of IL-TIF” value is recorded as “much weaker inhibition”. Moreover, in experiment [2] (63 ng/ml), the “inhibition at lowest concentration” value is reported as “barely detectable”.
